Consider 13 molecules from PubChem BioAssay (NCI).

Some test systems named below: UO-31 renal; RPMI-8226 leukemia; CAKI-1 renal; EKVX NSCLC; SN12C renal; OVCAR-8 ovarian; COLO 205 colon; NCI-H460 lung; TK-10 renal; MALME-3M melanoma.
Holding throughout (test): NCI tumour cell line growth inhibition, 48 h

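Grown in 96-well plates, cells were treated for 48 hours with each compound at five concentrations. Insufficient inhibition: endpoint recorded as highest concentration tested. At the GI50, growth is halved. TGI: total growth inhibition.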

`Cc1cc2c(c(C#N)c1C)NC(=O)CCC2=O`: the TGI was 91.4 µM in the assay with UO-31 renal; more than 100 µM with RPMI-8226 leukemia; more than 100 µM with CAKI-1 renal; more than 100 µM with EKVX NSCLC; more than 100 µM with SN12C renal; more than 100 µM in the assay with OVCAR-8 ovarian. For the same molecule, the TGI with COLO 205 colon and with NCI-H460 lung was more than 100 µM throughout.

Consider `Cn1c(=O)nc2n(-c3ccc(Cl)cc3)c3ccc(Cl)cc3nc-2c1=O`, for which the TGI was determined as 39.8 µM in the assay with UO-31 renal; 53.6 µM in the assay on TK-10 renal; 25.9 µM with CAKI-1 renal; 28.7 µM in the assay with EKVX NSCLC; 27.6 µM with SN12C renal; 52.5 µM in the assay on OVCAR-8 ovarian. In addition, in the assay with NCI-H460 lung, the TGI is 33.7 µM.

`O=C1C(=O)N(C(=O)c2ccc(Cl)c(Cl)c2)c2ccccc21`: the TGI in the assay on UO-31 renal, in the assay with TK-10 renal, in the assay on RPMI-8226 leukemia, in the assay on EKVX NSCLC, in the assay on OVCAR-8 ovarian and with COLO 205 colon was more than 100 µM each time.

As for `O=c1oc2cc(OS(=O)(=O)c3ccc(F)cc3)ccc2c2c1CCCCC2`, the GI50 in the assay with UO-31 renal is more than 100 µM; in the assay on TK-10 renal it was more than 100 µM; with RPMI-8226 leukemia it was 3.7 µM; in the assay with CAKI-1 renal, more than 100 µM; in the assay on SN12C renal, more than 100 µM; in the assay with OVCAR-8 ovarian it was more than 100 µM. The GI50 in the assay on MALME-3M melanoma is more than 100 µM; in the assay on COLO 205 colon it was 2.17 µM; with NCI-H460 lung, more than 100 µM. Besides, the TGI in the assay on UO-31 renal, with TK-10 renal, in the assay with RPMI-8226 leukemia, with CAKI-1 renal, in the assay on SN12C renal and in the assay on OVCAR-8 ovarian was more than 100 µM throughout. Besides, the TGI in the assay with MALME-3M melanoma, in the assay with COLO 205 colon and in the assay with NCI-H460 lung was more than 100 µM throughout.

On to `CC1=C(C(=O)Nc2ccccc2C)C(c2ccccc2)C(C(=O)Nc2ccccc2C)=C(C)N1`, for which the TGI in the assay with UO-31 renal, in the assay on TK-10 renal, with CAKI-1 renal, in the assay with EKVX NSCLC, with SN12C renal and in the assay on OVCAR-8 ovarian was more than 100 µM in each case. Also, the TGI in the assay on MALME-3M melanoma was more than 100 µM; in the assay with COLO 205 colon, 74.2 µM; in the assay on NCI-H460 lung it was more than 100 µM.

Turning to `COc1cc(OC)c([C@@H]2OC(=O)C3C2C(=O)O[C@H]3c2cc(OC)c(OC)cc2OC)cc1OC` (stereo not given in full), the TGI in the assay on UO-31 renal, with RPMI-8226 leukemia, in the assay with CAKI-1 renal, in the assay with EKVX NSCLC, with SN12C renal and with OVCAR-8 ovarian was more than 100 µM each time. For the same molecule, the TGI with COLO 205 colon and in the assay with NCI-H460 lung was more than 100 µM in each case.

As for `Cc1cc(-c2ncc(CC(=O)Nc3ccc(-c4cnccn4)cn3)cc2C)ccn1`, the GI50 is 12.7 µM with UO-31 renal; 16.4 µM in the assay with TK-10 renal; 19.2 µM with RPMI-8226 leukemia; 17.1 µM in the assay on CAKI-1 renal; 91.7 µM with SN12C renal; 25.6 µM with OVCAR-8 ovarian. Moreover, the GI50 with MALME-3M melanoma is 21.2 µM; with COLO 205 colon it was 42.8 µM; in the assay on NCI-H460 lung it was 63 µM. In addition, the TGI in the assay with UO-31 renal, in the assay on TK-10 renal, in the assay on RPMI-8226 leukemia, in the assay with CAKI-1 renal, with SN12C renal and in the assay with OVCAR-8 ovarian was more than 100 µM throughout. Also, the TGI with MALME-3M melanoma, in the assay on COLO 205 colon and in the assay on NCI-H460 lung was more than 100 µM in each case.

Regarding `N#CCC1COc2ccccc2O1` (stereo not given), the TGI in the assay with TK-10 renal, in the assay with RPMI-8226 leukemia, in the assay on CAKI-1 renal, in the assay with SN12C renal, in the assay on OVCAR-8 ovarian and with MALME-3M melanoma was more than 10 µM throughout. The TGI with COLO 205 colon was more than 10 µM.

On to `CC(=O)n1c(COS(C)(=O)=O)nc2ccccc21`, for which the TGI in the assay with UO-31 renal, in the assay on TK-10 renal, in the assay with CAKI-1 renal, with EKVX NSCLC, in the assay on SN12C renal and in the assay on OVCAR-8 ovarian was more than 100 µM each time. Further, the TGI with MALME-3M melanoma, with COLO 205 colon and in the assay on NCI-H460 lung was more than 100 µM each time.

With `N#CCC(=O)Nc1cccc(C(F)(F)F)c1`, the TGI in the assay on UO-31 renal, in the assay with TK-10 renal, with CAKI-1 renal, in the assay with EKVX NSCLC, in the assay on SN12C renal and in the assay with OVCAR-8 ovarian was more than 100 µM throughout. Further, the TGI in the assay with MALME-3M melanoma, in the assay on COLO 205 colon and in the assay on NCI-H460 lung was more than 100 µM each time.

As to `COc1cccc2cc(C)c(C(=O)c3ccccc3)nc12`, the TGI with UO-31 renal, in the assay with TK-10 renal, in the assay with RPMI-8226 leukemia, in the assay on CAKI-1 renal, in the assay on EKVX NSCLC and in the assay with SN12C renal was more than 100 µM throughout. Also, the TGI in the assay with OVCAR-8 ovarian, with MALME-3M melanoma and in the assay with COLO 205 colon was more than 100 µM in each case.

Regarding `O=C1CC(O)C=C1Nc1ccc(Cl)cc1` (stereo not given), the TGI in the assay on UO-31 renal was more than 100 µM; with TK-10 renal it was more than 100 µM; in the assay with CAKI-1 renal, more than 100 µM; in the assay on EKVX NSCLC it was 60.8 µM; with SN12C renal, more than 100 µM; with OVCAR-8 ovarian, more than 100 µM. For the same molecule, the values for the TGI in the assay with MALME-3M melanoma, with COLO 205 colon and in the assay with NCI-H460 lung were more than 100 µM, 22.3 µM and more than 100 µM, respectively.

On to `Cc1c2c(nn1-c1ccc(S(=O)(=O)NC(=S)Nc3ccccc3)cc1)-c1ccccc1CC2`, for which the GI50 with UO-31 renal is more than 50 µM; in the assay on TK-10 renal, 10 µM; in the assay with RPMI-8226 leukemia, 15.5 µM; with CAKI-1 renal, 1.85 µM; in the assay on EKVX NSCLC, more than 50 µM; in the assay with SN12C renal, more than 50 µM. The values for the GI50 with OVCAR-8 ovarian, in the assay with MALME-3M melanoma and with COLO 205 colon were more than 50 µM, 1.15 µM and more than 50 µM, respectively. The TGI with UO-31 renal is more than 50 µM; with TK-10 renal it was 46.9 µM; in the assay with RPMI-8226 leukemia, 42.4 µM; with CAKI-1 renal, 36.2 µM; with EKVX NSCLC, more than 50 µM; with SN12C renal, more than 50 µM. Besides, the TGI in the assay on OVCAR-8 ovarian, with MALME-3M melanoma and with COLO 205 colon was more than 50 µM in each case.
